This is an account of results in patent US8513433B2, “Small molecule inhibitors of PARP activity” (Angion Biomedica Corp., priority 2009, dated 2013).

The test system of one assay is rat. The following applies: 45 minutes ischemia, up to six hours reperfusion; drug one minute before reperfusion; cited from earlier work.
A further assay deals with T1, human PARP-1 (Homo sapiens, UniProt P09874).
T1 construct: purchased Trevigen Inc., Gaithersburg, Md
Briefly: Poly (ADP-Ribose) Polymerase-1 (PARP-1) in vitro enzyme assay (Universal Colorimetric PARP Assay Kit). Format: biochemical. The following applies: letter codes; read-out: extent of inhibition of PARP activity (IC50, micromolar). An excerpt: Poly (ADP-Ribose) Polymerase-1 (PARP-1) In Vitro Enzyme Assay: Compounds can be screened for inhibitory activity against human PARP-1 in vitro using the Universal Colorimetric PARP Assay Kit (Trevigen Inc., Gaithersburg, Md.) as directed by the supplier. Compounds can be assayed in duplicate in 0.5% DMSO final concentration, negative control is no enzyme, while positive control is DMSO vehicle alone. IC50 determinations can be made using Microsoft Excel. For all cell assays, compounds can be added to cells in 5% DMSO/PBS for a final concentration of 0.5% DMSO.

A further assay has as its system rats. The following applies: hemorrhagic shock and resuscitation; cited from earlier work.
In the next assay the test system is mouse. The following applies: mouse arthritis; inflammatory cell infiltration, hyperplasia of the synovium, tissue necrosis; cited from earlier work.
Another assay has as its system Mice. The following applies: eleven minutes aortic ischemia, 48 hours reperfusion, cited from earlier work.
For a further assay, the system named is PARP-1. The following applies: agent alone; cited from earlier work.
In assay [1] the test system is vascular smooth muscle cells in tumors. The following applies: cited from earlier work.

A value given as a limit tells only on which side of the number the result lay.

T1 sequence (P09874 whole entry): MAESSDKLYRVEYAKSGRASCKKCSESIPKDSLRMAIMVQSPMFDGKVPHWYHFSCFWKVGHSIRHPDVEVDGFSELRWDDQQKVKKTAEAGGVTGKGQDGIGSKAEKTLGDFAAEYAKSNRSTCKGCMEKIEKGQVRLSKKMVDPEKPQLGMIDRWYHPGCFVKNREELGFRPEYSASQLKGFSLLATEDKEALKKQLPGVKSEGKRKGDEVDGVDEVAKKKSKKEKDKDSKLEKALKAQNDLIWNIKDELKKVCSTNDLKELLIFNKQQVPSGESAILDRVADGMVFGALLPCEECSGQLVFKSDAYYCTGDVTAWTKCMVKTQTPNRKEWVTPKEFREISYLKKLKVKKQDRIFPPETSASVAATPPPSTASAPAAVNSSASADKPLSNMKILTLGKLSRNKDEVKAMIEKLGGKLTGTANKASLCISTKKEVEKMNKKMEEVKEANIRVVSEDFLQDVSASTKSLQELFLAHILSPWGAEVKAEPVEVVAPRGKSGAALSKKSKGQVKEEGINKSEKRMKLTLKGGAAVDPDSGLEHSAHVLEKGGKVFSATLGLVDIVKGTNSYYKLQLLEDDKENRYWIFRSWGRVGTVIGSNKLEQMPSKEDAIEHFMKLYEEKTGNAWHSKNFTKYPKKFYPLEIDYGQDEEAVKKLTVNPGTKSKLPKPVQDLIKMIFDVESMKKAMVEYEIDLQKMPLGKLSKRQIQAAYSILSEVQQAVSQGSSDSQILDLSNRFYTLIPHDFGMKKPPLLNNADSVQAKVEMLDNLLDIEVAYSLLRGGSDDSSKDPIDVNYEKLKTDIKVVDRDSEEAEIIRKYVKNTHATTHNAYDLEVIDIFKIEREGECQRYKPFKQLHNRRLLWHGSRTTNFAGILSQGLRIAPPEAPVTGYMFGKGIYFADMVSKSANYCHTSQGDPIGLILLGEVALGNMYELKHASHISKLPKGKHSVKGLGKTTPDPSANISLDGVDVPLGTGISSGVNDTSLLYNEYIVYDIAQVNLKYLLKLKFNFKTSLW

Regarding `Oc1cccc2c(O)nccc12` [1,5-dihroxyisoquinoline], the “kidney function (plasma urea, plasma creatinine, glomerular filtration rate)” value in the assay on rat is “improved kidney function”.

In the case of `NC(=O)c1cccc2[nH]c(C3NCCc4ccccc43)nc12` (stereo not shown) [2-(1,2,3,4-Tetrahydroisoquinolin-1-yl)-1H-benzo[d]imidazole-4-carboxamide], at human PARP-1, the IC50 (commonly the concentration that inhibits the measured activity by half) was less than 0.5 µM.

On to `NC(=O)c1cccc2[nH]c(C3Cc4ccccc4CN3)nc12` (stereo not shown) [2-(1,2,3,4-Tetrahydroisoquinolin-3-yl)-1H-benzo[d]imidazole-4-carboxamide], for which, on human PARP-1, the concentration for half-maximal inhibition (IC50) is less than 0.5 µM.

In the case of `NC(=O)c1cccc2[nH]c(C3CCc4ccccc4N3)nc12` (stereo not shown) [2-(1,2,3,4-Tetrahydroquinolin-2-yl)-1H-benzo[d]imidazole-4-carboxamide], the 50% inhibitory concentration (IC50) on human PARP-1 is less than 0.5 µM.

With `CC1(c2nc3c(C(N)=O)cccc3[nH]2)Cc2ccccc2CN1` (stereo not shown) [2-(3-Methyl-1,2,3,4-tetrahydroisoquinolin-3-yl)-1H-benzo[d]imidazole-4-carboxamide], the half-inhibitory concentration (IC50) at human PARP-1 was less than 0.5 µM.

With `NC(=O)c1cccc2[nH]c(C3Cc4ccc(N)cc4CN3)nc12` (stereo not shown) [2-(7-Amino-1,2,3,4-tetrahydroisoquinolin-3-yl)-1H-benzo[d]imidazole-4-carboxamide], the IC50 on human PARP-1 was less than 0.5 µM.

In the case of `NC(=O)c1cccc2[nH]c(C3Cc4ccccc4N3)nc12` (stereo not shown) [2-(Indolin-2yl)-1H-benzo[d]imidazole-4-carboxamide], the concentration for half-maximal inhibition (IC50) at human PARP-1 was less than 0.5 µM.

Take `NC(=O)c1cccc2[nH]c(C3NCc4ccccc43)nc12` (stereo not shown) [2-(Isoindolin-1-yl)-1H-benzo[d]imidazole-4-carboxamide]: the concentration for half-maximal inhibition (IC50) at human PARP-1 was less than 0.5 µM.

With `NC(=O)c1cccc(N)c1` [3-aminobenzamide], the “kidney function (plasma urea, plasma creatinine, glomerular filtration rate)” value with rat is recorded as “improved kidney function”.

`Nc1cccc2cnccc12` [5-aminoisoquinoline]: in the assay with rats, the leukocyte-endothelial interaction entry is “decreased leukocyte-endothelial interaction”, the liver function entry is “improved liver function” and the liver injury result was “decreased liver injury”.

With `Nc1ccc2oc(=O)ccc2c1I` [5-iodo-6-amino-1,2-benzopyrone], the “severity of the disease as assessed by histological parameters” value with mouse is recorded as “reduced the severity of the disease”.

As to `NC(=O)c1cccc2[nH]c(C3c4ccccc4CCN3C(=O)OCc3ccccc3)nc12` (stereo not shown) [Benzyl 1-(4-carbamoyl-1H-benzo[d]imidazol-2-yl)-3,4-dihydroisoquinoline-2(1H)-carboxylate], the IC50 on human PARP-1 is greater than 2 µM.

As for `NC(=O)c1cccc2[nH]c(C3c4ccccc4CN3C(=O)OCc3ccccc3)nc12` (stereo not shown) [Benzyl 1-(4-carbamoyl-1H-benzo[d]imidazol-2-yl)isoindoline-2-carboxylate], the concentration for half-maximal inhibition (IC50) on human PARP-1 was greater than 2 µM.

As to `NC(=O)c1cccc2[nH]c(C3Cc4ccccc4N3C(=O)OCc3ccccc3)nc12` (stereo not shown) [Benzyl 2-(4-carbamoyl-1H-benzo[d]imidazol-2-yl)indoline-1-carboxylate], the concentration for half-maximal inhibition (IC50) on human PARP-1 is greater than 2 µM.

For `NC(=O)c1cccc2[nH]c(C3Cc4ccccc4CN3C(=O)OCc3ccccc3)nc12` (stereo not shown) [Benzyl 3-(4-carbamoyl-1H-benzo[d]imidazol-2-yl)-3,4-dihydroisoquinoline-2-(1H)-carboxylate], on human PARP-1, the IC50 lay in the range of 0.5 to 2 µM.

As for `CC1(c2nc3c(C(N)=O)cccc3[nH]2)Cc2ccccc2CN1C(=O)OCc1ccccc1` (stereo not shown) [Benzyl 3-(4-carbamoyl-1H-benzo[d]imidazol-2-yl)-3-methyl-3,4-dihydroisoquinoline-2(1H)-carboxylate], on human PARP-1, the concentration for half-maximal inhibition (IC50) was greater than 2 µM.

For `CN(C)CC(=O)Nc1ccc2[nH]c(=O)c3ccccc3c2c1` [PJ34], in the assay on Mice, the “fibrinolysis stimulated by the ischemia-reperfusion” value is given as “no apparent affect” and the “steady state levels of a marker for neutrophil infiltration” value is on record as “decrease steady state levels”. Also, the renal mitochondrial activity result in the assay with Mice (treated 1 hour before and immediately after ischemia) was “preserve renal mitochondrial activity”.

`CC[C@@]1(O)C(=O)OCc2c1cc1n(c2=O)Cc2cc3ccccc3nc2-1` [camptothecin]: the “activation of PARP-1” value in the assay with PARP-1 is “four-fold activation”.

Turning to `COc1cc([C@@H]2c3cc4c(cc3[C@@H](O[C@@H]3O[C@@H]5CO[C@@H](C)O[C@H]5[C@H](O)[C@H]3O)[C@H]3COC(=O)[C@H]23)OCO4)cc(OC)c1O` [etoposide], the “activation of PARP-1” value with PARP-1 is given as “failed to induce PARP-1”.

Turning to `NC(=O)c1cccnc1` [nicotinamide], in assay [1], the “contraction of vascular smooth muscle cells in tumors” value is reported as “inhibit contraction”.

As for `CC(C)(C)OC(=O)N1c2ccccc2CCC1c1nc2c(C(N)=O)cccc2[nH]1` (stereo not shown) [tert-Butyl 2-(4-carbamoyl-1H-benzo[d]imidazol-2-yl)-3,4-dihydroquinoline-1(2H)-carboxylate], the concentration for half-maximal inhibition (IC50) at human PARP-1 was greater than 2 µM.

On to `CC(C)(C)OC(=O)Nc1ccc2c(c1)CN(C(=O)OC(C)(C)C)C(c1nc3c(C(N)=O)cccc3[nH]1)C2` (stereo not shown) [tert-Butyl 7-((tert-butoxycarbonyl)amino)-3-(4-carbamoyl-1H-benzo[d]imidazol-2-yl)-3,4-dihydroisoquinoline-2(1H)-carboxylate], for which the IC50 on human PARP-1 was greater than 2 µM.

On to `CC(C)(C)OC(=O)N1Cc2cc(N)ccc2CC1c1nc2c(C(N)=O)cccc2[nH]1` (stereo not shown) [tert-Butyl 7-amino-3-(4-carbamoyl-1H-benzo[d]imidazol-2-yl)-3,4-dihydroisoquinoline-2(1H)-carboxylate], for which, on human PARP-1, the half-inhibitory concentration (IC50) was greater than 2 µM.

With `CC(C)(C)OC(=O)Nc1ccc2c(c1)CNC(c1nc3c(C(N)=O)cccc3[nH]1)C2` (stereo not shown) [tert-Butyl (3-(4-carbamoyl-1H-benzo[d]imidazol-2-yl)-1,2,3,4-tetrahydroisoquinolin-7-yl)carbamates], the IC50 at human PARP-1 is greater than 2 µM.
